Starred links: 1 amine or outer side, 2 acyl side, 3 side chain; linkers in the order of their positions; H or OH if unused. Positions of bridges follow the written chain, without caps; N, C: chain ends. Non-standard residues stand in square brackets, D forms with d. Residues, ends and D or L forms follow the SMILES beside them. ξ: configuration not given here. *: point of attachment. X3 = O=C(O)CN1CCN(CC(=O)O)CCN(CC(=O)NCCCOCCOCCOCCCN*)CCN(CC(=O)O)CC1; Trp(5-OH) = N[C@@H](Cc1c[nH]c2ccc(O)cc12)C(=O)O; ξTrp(5-Me) = Cc1ccc2[nH]cc(CC(N)C(=O)O)c2c1; mXylylene = c1cc(C[*:1])cc(C[*:2])c1; Hydrocinnamoyl = O=C(CCc1ccccc1)*; tBuAla = CC(C)(C)C[C@H](N)C(=O)O; Pen = CC(C)(S)[C@H](N)C(=O)O; Suc = O=C(CCC(=O)[*:2])[*:1]; Tle = CC(C)(C)[C@H](N)C(=O)O; Isovaleryl = CC(C)CC(=O)*; Hexanoyl = CCCCCC(=O)*; PhAc = O=C(Cc1ccccc1)*; Bz = O=C(c1ccccc1)*; Sar = CNCC(=O)O A value given as a limit tells only on which side of the number the result lay.

One experiment deals with T1, CAIX-expressing human HT-29 colorectal cancer cells (Homo sapiens, UniProt Q16790).
T1 construct: CAIX-expressing human HT-29 colorectal cancer cells; host or cells: HT-29 human colorectal cancer cells
As to the kind of experiment: FACS binding assay (IC50 determination, competition with tracer 3BP-2776 or 3BP-4149).
Details: not given
The method, then:
In order to determine binding of compounds according to the present invention to CAIX-expressing cells, a FACS binding assay was established.
CAIX-expressing human HT-29 colorectal cancer cells (DSMZ, RRID: CVCL_0320) were cultured in McCoys's 5A modified medium (Biochrom, #F1015) including 10% fetal calf serum (FCS), 2 mM L-glutamine, 100 U/ml penicillin and 100 μg/mL streptomycin. Cells were detached with Accutase (Biolegend, #423201) and washed in FACS buffer (PBS including 1% FCS). Cells were diluted in FACS buffer to a final concentration of 500.000 cells per ml. 200 μL of the cell suspension were transferred to a u-shaped non-binding 96-well plate (Greiner) and cells were washed in ice-cold FACS buffer.
When biotinylated compounds were used an additional incubation step with 1 μg/mL APC-Streptavidin (Miltenyi; #130-106-791) in 50 μL FACS buffer for 30 minutes on ice was performed.
Cells were washed twice with ice-cold FACS buffer and analyzed in an Attune NxT flow cytometer (Thermo Fisher). Median fluorescence intensities (MFI) of the APC/Cy5-channel were calculated by Attune NxT software. MFI values were plotted against peptide concentration and four parameter logistic (4PL) curve fitting and EC50/pEC50 or IC50/pIC50 calculations were performed using ActivityBase software.
Compound `CC(C)C[C@@H]1NC(=O)[C@H](Cc2c[nH]c3ccccc23)NC(=O)[C@H](CC(=O)O)NC(=O)CNC(=O)[C@H](CCC(=O)O)NC(=O)[C@@H](NC(=O)[C@H](Cc2ccc(O)cc2)NC(=O)[C@@H](NC(=O)c2ccccc2)C(C)C)CSCc2cccc(c2)CSC[C@@H](C(N)=O)NC(=O)[C@H](CCC(N)=O)NC(=O)[C@H](Cc2c[nH]c3ccccc23)NC(=O)[C@H]([C@@H](C)O)NC1=O` [3BP-3108] (Bz-VYCEGDWLTWQC-NH2; linker 3-12 via mXylylene) displayed an IC50 of under 10 nM. Take `CC(C)C[C@@H]1NC(=O)[C@H](Cc2c[nH]c3ccccc23)NC(=O)[C@H](CC(=O)O)NC(=O)CNC(=O)[C@H](CCC(=O)O)NC(=O)[C@@H](NC(=O)[C@H](Cc2ccc(O)cc2)NC(=O)[C@@H](NC(=O)Cc2ccccc2)C(C)C)CSCc2cccc(c2)CSC[C@@H](C(N)=O)NC(=O)[C@H](CCC(N)=O)NC(=O)[C@H](Cc2c[nH]c3ccccc23)NC(=O)[C@H]([C@@H](C)O)NC1=O` [3BP-3109] (PhAc-VYCEGDWLTWQC-NH2; linker 3-12 via mXylylene): the IC50 is under 10 nM.

The experiment is the same for the next values; noted with them: FACS competition on HT-29 cells, Tracer ID 3BP-2776 (10 nM, biotin-labeled), 4° C., 1 hour; read-out: pIC50 category (activity) (converted).
As for `CC(=O)N[C@H](C(=O)N[C@@H](Cc1ccc(O)cc1)C(=O)N[C@H]1CSCc2cccc(c2)CSC(C)(C)[C@@H](C(N)=O)NC(=O)[C@H](CCC(N)=O)NC(=O)[C@H](Cc2c[nH]c3ccccc23)NC(=O)[C@H]([C@@H](C)O)NC(=O)[C@H](CC(C)C)NC(=O)[C@H](Cc2c[nH]c3ccccc23)NC(=O)[C@H](CC(=O)O)NC(=O)CNC(=O)[C@H](CCC(=O)O)NC1=O)C(C)C` [3BP-3064] (Ac-VYCEGDWLTWQ[Pen]-NH2; linker 3-12 via mXylylene), the IC50 is under 10 nM. Same read-out and setting: under `CC(=O)N[C@H](C(=O)N[C@@H](Cc1ccc(O)cc1)C(=O)N[C@H]1CSCc2cccc(c2)CSC[C@@H](C(N)=O)NC(=O)[C@H](CCC(N)=O)NC(=O)[C@H](Cc2c[nH]c3ccccc23)NC(=O)[C@H]([C@@H](C)O)NC(=O)[C@H](CC(C)(C)C)NC(=O)[C@H](Cc2c[nH]c3ccccc23)NC(=O)[C@H](CC(=O)O)NC(=O)CNC(=O)[C@H](CCC(=O)O)NC1=O)C(C)C` [3BP-3065] (Ac-VYCEGDW[tBuAla]TWQC-NH2; linker 3-12 via mXylylene) stands under 10 nM; under `CC(=O)N[C@H](C(=O)N[C@@H](Cc1ccc(O)cc1)C(=O)N[C@H]1CSCc2cccc(c2)CSC[C@@H](C(N)=O)NC(=O)[C@H](CCC(N)=O)NC(=O)[C@H](Cc2c[nH]c3ccccc23)NC(=O)[C@H]([C@@H](C)O)NC(=O)[C@H](C(C)(C)C)NC(=O)[C@H](Cc2c[nH]c3ccccc23)NC(=O)[C@H](CC(=O)O)NC(=O)CNC(=O)[C@H](CCC(=O)O)NC1=O)C(C)C` [3BP-3066] (Ac-VYCEGDW[Tle]TWQC-NH2; linker 3-12 via mXylylene), 10 to 79.4 nM. Turning to `CCCCCC(=O)N[C@H](C(=O)N[C@@H](Cc1ccc(O)cc1)C(=O)N[C@H]1CSCc2cccc(c2)CSC[C@@H](C(N)=O)NC(=O)[C@H](CCC(N)=O)NC(=O)[C@H](Cc2c[nH]c3ccccc23)NC(=O)[C@H]([C@@H](C)O)NC(=O)[C@H](CC(C)C)NC(=O)[C@H](Cc2c[nH]c3ccccc23)NC(=O)[C@H](CC(=O)O)NC(=O)CNC(=O)[C@H](CCC(=O)O)NC1=O)C(C)C` [3BP-3107] (Hexanoyl-VYCEGDWLTWQC-NH2; linker 3-12 via mXylylene), the IC50 was under 10 nM. Consider `CC(C)C[C@@H]1NC(=O)[C@H](Cc2c[nH]c3ccccc23)NC(=O)[C@H](CC(=O)O)NC(=O)CNC(=O)[C@H](CCC(=O)O)NC(=O)[C@@H](NC(=O)[C@H](Cc2ccc(O)cc2)NC(=O)[C@@H](NC(=O)CCc2ccccc2)C(C)C)CSCc2cccc(c2)CSC[C@@H](C(N)=O)NC(=O)[C@H](CCC(N)=O)NC(=O)[C@H](Cc2c[nH]c3ccccc23)NC(=O)[C@H]([C@@H](C)O)NC1=O` [3BP-3110] (Hydrocinnamoyl-VYCEGDWLTWQC-NH2; linker 3-12 via mXylylene), for which the IC50 was under 10 nM. On the same count and under the same terms, under `CC(C)CC(=O)N[C@H](C(=O)N[C@@H](Cc1ccc(O)cc1)C(=O)N[C@H]1CSCc2cccc(c2)CSC[C@@H](C(N)=O)NC(=O)[C@H](CCC(N)=O)NC(=O)[C@H](Cc2c[nH]c3ccccc23)NC(=O)[C@H]([C@@H](C)O)NC(=O)[C@H](CC(C)C)NC(=O)[C@H](Cc2c[nH]c3ccccc23)NC(=O)[C@H](CC(=O)O)NC(=O)CNC(=O)[C@H](CCC(=O)O)NC1=O)C(C)C` [3BP-3111] (Isovaleryl-VYCEGDWLTWQC-NH2; linker 3-12 via mXylylene) stands under 10 nM; under `CC(C)C[C@@H]1NC(=O)[C@H](Cc2c[nH]c3ccccc23)NC(=O)[C@H](CC(=O)O)NC(=O)[C@@H](C)NC(=O)[C@H](CCC(=O)O)NC(=O)[C@@H](NC(=O)[C@H](Cc2ccc(O)cc2)NC(=O)[C@@H](NC(=O)CCC(=O)NCCCOCCOCCOCCCNC(=O)CN2CCN(CC(=O)O)CCN(CC(=O)O)CCN(CC(=O)O)CC2)C(C)C)CSCc2cccc(c2)CSC[C@@H](C(N)=O)NC(=O)[C@H](CCC(N)=O)NC(=O)[C@H](Cc2c[nH]c3ccccc23)NC(=O)[C@H]([C@@H](C)O)NC1=O` [3BP-3270] ({X3-Suc}-VYCE[dA]DWLTWQC-NH2; linker 3-12 via mXylylene), under 10 nM.

In the case of `CC(C)C[C@@H]1NC(=O)[C@H](Cc2c[nH]c3ccccc23)NC(=O)[C@H](CC(=O)O)NC(=O)CN(C)C(=O)[C@H](CCC(=O)O)NC(=O)[C@@H](NC(=O)[C@H](Cc2ccc(O)cc2)NC(=O)[C@@H](NC(=O)CCC(=O)NCCCOCCOCCOCCCNC(=O)CN2CCN(CC(=O)O)CCN(CC(=O)O)CCN(CC(=O)O)CC2)C(C)C)CSCc2cccc(c2)CSC[C@@H](C(N)=O)NC(=O)[C@H](C)NC(=O)[C@H](Cc2c[nH]c3ccccc23)NC(=O)[C@H]([C@@H](C)O)NC1=O` [3BP-3278] ({X3-Suc}-VYCE[Sar]DWLTWAC-NH2; linker 3-12 via mXylylene), the IC50 was 10 to 79.4 nM. The same measure, in the same setting: under `CC(=O)N[C@H](C(=O)N[C@@H](Cc1ccc(O)cc1)C(=O)N[C@H]1CSCc2cccc(c2)CSC[C@@H](C(N)=O)NC(=O)CNC(=O)[C@H](Cc2c[nH]c3ccccc23)NC(=O)[C@H]([C@@H](C)O)NC(=O)[C@H](CC(C)C)NC(=O)[C@H](Cc2c[nH]c3ccccc23)NC(=O)[C@H](CC(=O)O)NC(=O)[C@@H](C)NC(=O)[C@H](CCC(=O)O)NC1=O)C(C)C` [3BP-3284] (Ac-VYCE[dA]DWLTWGC-NH2; linker 3-12 via mXylylene) stands under 10 nM; under `CC(=O)N[C@H](C(=O)N[C@@H](Cc1ccc(O)cc1)C(=O)N[C@H]1CSCc2cccc(c2)CSC[C@@H](C(N)=O)NC(=O)[C@H](CCC(N)=O)NC(=O)[C@H](Cc2c[nH]c3ccccc23)NC(=O)[C@H]([C@@H](C)O)NC(=O)[C@H](CC(C)C)NC(=O)C(Cc2c[nH]c3ccc(C)cc23)NC(=O)[C@H](CC(=O)O)NC(=O)CN(C)C(=O)[C@H](CCC(=O)O)NC1=O)C(C)C` (stereo partly shown) [3BP-3290] (Ac-VYCE[Sar]D[ξTrp(5-Me)]LTWQC-NH2; linker 3-12 via mXylylene), under 10 nM. Same read-out and setting: with `CC(=O)N[C@H](C(=O)N[C@@H](Cc1ccc(O)cc1)C(=O)N[C@H]1CSCc2cccc(c2)CSC[C@@H](C(N)=O)NC(=O)CNC(=O)[C@H](Cc2c[nH]c3ccccc23)NC(=O)[C@H]([C@@H](C)O)NC(=O)[C@H](CC(C)C)NC(=O)[C@H](Cc2c[nH]c3ccccc23)NC(=O)[C@H](CC(=O)O)NC(=O)CN(C)C(=O)[C@H](CCC(=O)O)NC1=O)C(C)C` [3BP-3304] (Ac-VYCE[Sar]DWLTWGC-NH2; linker 3-12 via mXylylene) the figure was under 10 nM. On the same count and under the same terms, under `CC(=O)N[C@H](C(=O)N[C@@H](Cc1ccc(O)cc1)C(=O)N[C@H]1CSCc2cccc(c2)CSC[C@@H](C(N)=O)NC(=O)[C@H](CCC(N)=O)NC(=O)[C@H](Cc2c[nH]c3ccccc23)NC(=O)CNC(=O)[C@H](CC(C)C)NC(=O)[C@H](Cc2c[nH]c3ccccc23)NC(=O)[C@H](CC(=O)O)NC(=O)CN(C)C(=O)[C@H](CCC(=O)O)NC1=O)C(C)C` [3BP-3307] (Ac-VYCE[Sar]DWLGWQC-NH2; linker 3-12 via mXylylene) stands under 10 nM; under `CC(=O)N[C@H](C(=O)N[C@@H](Cc1ccc(O)cc1)C(=O)N[C@H]1CSCc2cccc(c2)CSC[C@@H](C(N)=O)NC(=O)[C@H](CCC(N)=O)NC(=O)[C@H](Cc2c[nH]c3ccccc23)NC(=O)[C@@H](C)NC(=O)[C@H](CC(C)C)NC(=O)[C@H](Cc2c[nH]c3ccccc23)NC(=O)[C@H](CC(=O)O)NC(=O)CN(C)C(=O)[C@H](CCC(=O)O)NC1=O)C(C)C` [3BP-3309] (Ac-VYCE[Sar]DWL[dA]WQC-NH2; linker 3-12 via mXylylene), 100 to 794 nM. For `CC(=O)N[C@H](C(=O)N[C@@H](Cc1ccc(O)cc1)C(=O)N[C@H]1CSCc2cccc(c2)CSC[C@@H](C(N)=O)NC(=O)[C@H](CCC(N)=O)NC(=O)[C@H](Cc2c[nH]c3ccccc23)NC(=O)[C@H]([C@@H](C)O)NC(=O)[C@H](CC(C)C)NC(=O)[C@H](Cc2c[nH]c3ccc(O)cc23)NC(=O)[C@H](CC(=O)O)NC(=O)CN(C)C(=O)[C@H](CCC(=O)O)NC1=O)C(C)C` [3BP-3310] (Ac-VYCE[Sar]D[Trp(5-OH)]LTWQC-NH2; linker 3-12 via mXylylene), the IC50 was 100 to 794 nM.

Values taken from patent US20250339569A1, “CARBONIC ANHYDRASE IX LIGANDS” (priority 2021, published 2025).
